Entries after “also recorded” stand apart in the source; their conditions may differ.
What was measured:
[1] = system: primary alveolar epithelial cells (AE) and endothelial cells with whole blood; assay: Lung-on-a-chip stimulated with TNF-α or LPS: vascular ICAM-1, P-E, clots, gap junctions; format: cell-based, human
Description: (§1) Specifically, the analysis includes a method to quantitate platelet function in flow chambers and microfluidic devices that has been primarily limited to analyzing platelet adhesion on bare collagen surfaces. To analyze platelet-endothelial dynamics that will act as a robust readout of physiologically-relevant clotting, an automated imaging program creates an image time-series, K(x, y, t), containing a 10-frame panorama in space. Images are acquired at a frame rate of 2 panoramic images per minute, for a total time of 15 minutes. A non-dimensional stochastic index is derived to quantitate platelet endothelial dynamics (“P-E”), which is the interpercentile range of a coefficient of variance of the image time-series: P-E=range(CV(K(x,y,t) (1) A feature of this analytical readout is that instead of an “ensemble averaging,” the method incorporates the cell-surface interactions at the pixel level and quantitates statistical “dispersion” of interactions.
(§2) After plasma treatment of the microfluidic devices, the two chambers are pre-treated with 10% (3-aminopropyl)-trimethoxysilane (APTMES, e.g., from Sigma) in 100% anhydrous alcohol (e.g., from Sigma) for 10-20 minutes. The chambers are flushed sequentially with 70% ethanol in water and 100% ethanol, and then dried at 60-80° C. for two hours. Then, a mixture of rat tail collagen I (100 μg ml^−1 in PBS, from BD Biosciences) and fibronectin (e.g., 30 μg/ml in PBSm, from BD Biosciences) is introduced in both chambers of the microfluidic device. The microfluidic device is incubated at 37° C. for at least 2 hours before flushing with PBS or EGM-2 cell culture media.
(§3) Some of the microfluidic devices are used with collagen coating alone (without cells). In other devices, HUVECs (e.g. from Lonza) are cultured in Endothelial Growth Medium-2 (EGM-2, from Lonza) and used between certain passages. The cells (5-10×10^6 cells/ml) are introduced into the collagen-coated channels and incubated for 20 minutes at 37° C. to promote cell attachment before a second similar HUVEC suspension is, then, introduced. The microfluidic devices are incubated upside down for an additional 20 minutes to seed the cells on the ceiling and walls of the lower chamber.
(§4) The lower chamber is then flushed with EGM-2 and, then, a suspension of primary alveolar epithelial cells (e.g., from ScienCell Research Labs, Carlsbad, Calif.; 5-6×10^6 cells ml^−1) is introduced into the top chamber of the device. After a few hours, the top and bottom chambers are flushed with their respective media, and the microfluidic devices are incubated at 37° C. under 5% CO2 for 3 days (with media being replaced each day once). On day 4, the bottom vascular chamber is set on perfusion of EGM-2 media (e.g., 30 μL hr^−1; 0.5% fetal bovine serum) to provide shear to the HUVEC vessel chamber and a continuous supply of fresh media.
On day 6, the epithelial cell media in the top chamber is aspirated to create the air-liquid interface of the alveoli. Hereon, the cell culture continues for another 6-8 days, after which, in some cases, the top chamber is supplemented with 0, 5, or 100 ng ml^−1 TNF-α in PBS (e.g., from Sigma) overnight or LPS (e.g., 100 ng ml^−1 of E. Coli, from Sigma,) for 2 hours to cause cell activation. The LPS is sonicated in ultrasonic bath for about 20-30 minutes before introducing into the microfluidic device. After stimulation, the top chamber is clamped, the bottom chamber is rinsed with culture media, a reservoir cut from a 3 ml slip-tip syringe (e.g., from BD) is inserted on one end of the lower chamber, and a 1/16-inch male luer connector (e.g., from Qosina Corp) is inserted on the other end of the lower chamber.
When analyzing the formation of fibrin, blood samples re added with 15 μg ml^−1 of fluorescently labeled fibrinogen (e.g., Alexa 488 from Invitrogen). […]

C57BL/6J mice = assay: Mouse laser injury model of thrombosis and lung histology after LPS; format: in vivo
Description: In the above described techniques, C57BL/6J mice (about 8-12 weeks old) are used. For example, the mice are purchased from the Jackson Laboratory (Bar Harbor, Me.). Animal care and experimental procedures are performed in accordance with and under approval of the Beth Israel Deaconess Medical Center (“BIDMC”) Institutional Animal Care and Use Committee.
LPS is isolated from Escherichia coli serotype 0111:B4 (e.g., from Sigma-Aldrich, St Louis, Mo.). The anti-platelet antibody CD42b conjugated to Dylight649 is purchased, for example, from Emfret Analytics (Eibelstadt, Germany).
A laser-induced injury model of thrombosis is optionally used to monitor thrombosis formation in cremaster arterioles and venules in response to intraperitoneal injection of LPS (e.g., 10 mg kg^−1) or vehicle (e.g., physiological saline solution). Intravital microscopy of the cremaster microcirculation is performed, with injury to a cremaster arteriolar (e.g., 30-50 μm diameter) vessel wall being induced with a Micropoint Laser System (e.g., from Photonics Instruments, Chicago, Ill.). The Micropoint Laser System is focused through a microscope objective, parfocal with the focal plane and tuned to 440 nm. Data is captured digitally in a single fluorescence channel at 647/670 nm. Data acquisition is initiated both prior to and following a single laser pulse for each injury. Images are captured using a CCD camera (e.g., from Hamamatsu) at frame rates of 1/0.2 s^−1 and 1/0.5 s^−1, for a total of 240 seconds. The microscope system is controlled and images are analyzed using Slidebook (e.g., from Intelligent Imaging Innovations, Denver, Colo.). Anti-platelet antibodies re infused into the mice prior to vessel wall injury.
Histology Lungs are harvested in 4% paraformaldehyde. Following overnight incubation, lungs re transferred to 70% ethanol. Paraffin-embedded lungs are sectioned and stained with Hematoxylin and eosin […] or Masson's Trichome stain (MTS). This work is done by the histology and microscopy core at BIDMC.

[2] = system: platelets and endothelium in LPS-stimulated lung-on-a-chip (PAR-1); assay: Platelet-endothelial dynamics (P-E) in LPS-stimulated lung-on-a-chip with PM2; format: cell-based, human
Description: as §1, §2, §3
as §4, with “On day 4, the bottom vascular chamber is set on perfusion of EGM-2 media (e.g., 30 μL hr^−1; 0.5% fetal bovine serum) to provide shear to the HUVEC vessel chamber and a continuous supply of fresh media.” left out

Compound: lipopolysaccharide [LPS]
- platelet-endothelial dynamics (P-E) ([1]; LPS in the absence of AE): near absent
- gap junctions ([1]; LPS in the presence of AE): significantly increase
- thrombus formation ([1]; LPS stimulation of endothelium alone): does not cause thrombus formation
- endothelial inflammation (vascular ICAM-1) ([1]; LPS stimulation over the AE): inflamed
- platelet-endothelial dynamics (P-E) ([1]; LPS stimulation over the AE): significantly increases
- thrombus formation (platelet aggregates, fibrin) in the lumen ([1]; LPS-stimulated device containing AE): large platelet aggregates are formed along with significant fibrin in the lumen; also recorded: vascular dysfunction and rapid clotting
- gap junctions ([1]; blood vessel alone stimulated with LPS): not affected
- vascular ICAM-1 ([1]; blood vessel alone stimulated with LPS for 2 hours (no AE)): no significant increase in ICAM-1
- lung histology (C57BL/6J mice; LPS injection): lung injury and pulmonary thrombosis; also recorded: causes clotting in the lung
- increase in P-E in cremaster artery and vein (C57BL/6J mice; laser injury plus LPS): further exacerbated
- platelet-endothelial interactions / thrombosis in cremaster artery or vein (C57BL/6J mice; systemic LPS alone (10 mg kg^-1 intraperitoneal)): does not induce any platelet-endothelial interactions; also recorded: does not cause thrombosis in a cremaster artery or vein

Compound: CCCC(=O)Nc1cccc(NC(=O)c2ccccc2Br)c1 [PM2, parmodulin 2]
- platelet-endothelial dynamics (P-E) ([2]; PM2 30 μM added to blood alone, AE side stimulated with LPS): reduction of P-E
- clotting and platelet-endothelial dynamics (P-E) ([2]; PM2 30 μM added to endothelial cell culture medium, AE side stimulated with LPS 100 ng/ml): no significant clotting occurs
- P-E and thrombotic activity ([2]; PM2 added to both endothelium and platelets, AE side stimulated with LPS): completely inhibits the P-E and thrombotic activity
- overall effect of PM2 in LPS-stimulated lung-on-a-chip ([2]; model of acute lung dysfunction, whole blood perfusion): endothelial cytoprotective effect; also recorded: cytoprotective and anti-thrombotic effect

Source: US10732172B1, “Methods, systems, and compositions for determining blood clot formation, and uses thereof” (President and Fellows of Harvard College, priority 2015, dated 2020)
